System: Radical scavenging activity
Experiment: Antioxidant activity assessed as DPPH free radical scavenging activity after 30 mins by spectrophotometric assay

IC50 | SMILES
11 µM | O=c1cc(-c2ccc(O)c(O)c2)oc2cc(O[C@@H]3O[C@H](CO)[C@@H](O)[C@H](O)[C@H]3O)c(O)c(O)c12
18 µM | O=C(/C=C/c1ccc(O)cc1)OC[C@H]1O[C@@H](OCCc2ccc(O)c(O)c2)[C@H](O)[C@@H](O)[C@@H]1O
8 µM | O=c1cc(-c2ccc(O)c(O)c2)oc2cc(O[C@@H]3O[C@H](CO)[C@@H](O)[C@H](O[C@@H]4O[C@H](CO)[C@@H](O)[C@H](O)[C@H]4O)[C@H]3O)c(O)c(O)c12
12 µM | O=C1C[C@@H](c2ccc(O)c(O)c2)Oc2cc(O[C@@H]3O[C@H](CO)[C@@H](O)[C@H](O)[C@H]3O[C@@H]3O[C@H](CO)[C@@H](O)[C@H](O)[C@H]3O)cc(O)c21
12 µM | O=c1cc(-c2ccc(O)c(O)c2)oc2cc(O[C@@H]3O[C@H](CO)[C@@H](O)[C@H](O)[C@H]3O[C@@H]3O[C@H](CO)[C@@H](O)[C@H](O)[C@H]3O)cc(O)c12
20 µM | C[C@@H]1O[C@@H](O[C@@H]2[C@@H](O)[C@H](OCCc3ccc(O)c(O)c3)O[C@H](CO)[C@H]2OC(=O)/C=C/c2ccc(O)c(O)c2)[C@H](O)[C@H](O)[C@H]1O [ACETOSIDE]
40 µM | Cc1cc(C(C)(C)C)c(O)c(C(C)(C)C)c1 [BUTYLATED HYDROXYTOLUENE]
21 µM | C[C@@H]1O[C@@H](OC[C@H]2O[C@@H](OCCc3ccc(O)c(O)c3)[C@H](O)[C@@H](O)[C@@H]2OC(=O)/C=C/c2ccc(O)c(O)c2)[C@H](O)[C@H](O)[C@H]1O [FORSYTHIASIDE]
20 µM | C[C@@H]1O[C@@H](O[C@@H]2[C@@H](O)[C@H](OCCc3ccc(O)c(O)c3)O[C@H](COC(=O)/C=C/c3ccc(O)c(O)c3)[C@H]2O)[C@H](O)[C@H](O)[C@H]1O [ISOACTEOSIDE]

From ChEMBL document CHEMBL1141793, “Antioxidant constituents of the aerial parts of Globularia alypum growing in Morocco” (J Nat Prod, 2005)
